PubChem BioAssay (NCI)
Several values for one entry are separate records, joined by “and”; a condition that tells them apart may be missing. Identical values can stand only once.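 Step 1: Grow cells in 96-well plates. Step 2: Expose to compound for 48 hours at 5 concentrations. Step 3: Interpolate endpoints linearly; if unreached, use highest concentration. GI50 is the concentration that inhibits growth by half. The concentration for full growth arrest is given as TGI.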

How the values were obtained:
Assay in all cases: inhibition of tumour cell growth, NCI panel, 48 h
MOLT-4 leukemia = tested on: MOLT-4 leukemia
NCI-H226 lung = tested on: NCI-H226 lung
SW-620 colon = tested on: SW-620 colon
TK-10 renal = tested on: TK-10 renal
OVCAR-4 ovarian = tested on: OVCAR-4 ovarian
UO-31 renal = tested on: UO-31 renal
HCT-116 colon = tested on: HCT-116 colon
IGROV1 ovarian = tested on: IGROV1 ovarian
OVCAR-5 ovarian = tested on: OVCAR-5 ovarian
SK-OV-3 ovarian = tested on: SK-OV-3 ovarian

Row | SMILES | GI50 (MOLT-4 leukemia) | TGI (MOLT-4 leukemia) | GI50 (NCI-H226 lung) | TGI (NCI-H226 lung) | GI50 (SW-620 colon) | TGI (SW-620 colon) | GI50 (TK-10 renal) | TGI (TK-10 renal) | GI50 (OVCAR-4 ovarian) | TGI (OVCAR-4 ovarian) | GI50 (UO-31 renal) | TGI (UO-31 renal) | GI50 (HCT-116 colon) | TGI (HCT-116 colon) | GI50 (IGROV1 ovarian) | TGI (IGROV1 ovarian) | GI50 (OVCAR-5 ovarian) | TGI (OVCAR-5 ovarian) | GI50 (SK-OV-3 ovarian) | TGI (SK-OV-3 ovarian)
1 | CCSc1nc(N)c2cn[nH]c2n1 | 39.4 µM | > 100 µM | 16.9 µM | 57.1 µM | 31.7 µM | > 100 µM | 7.54 µM | 34.3 µM | 32.7 µM | 89 µM | 49 µM | > 100 µM | 30.5 µM | > 100 µM | 35.9 µM | > 100 µM | 21.8 µM | 63.1 µM | 42.1 µM | > 100 µM
2 | O=C(/C=C/c1ccccc1)CC(c1ccccc1)N1CCOCC1 (stereo not given) | 3.12 µM | 9.87 µM | 5.39 µM | 24.2 µM | 2.33 µM | 4.91 µM | 8.63 µM | 24.5 µM | 9.68 µM | 23.3 µM | 1.58 µM | 3.24 µM | 1.15 µM | 2.37 µM | 2.14 µM | 5.78 µM | 9.79 µM | 22.1 µM | 14.4 µM | 30.7 µM
3 | CC1CCCc2c1nn(C(=O)/C=C(\N)c1ccccc1)c2N (stereo not given) | 5.16 µM | 84.9 µM | 16.5 µM | > 100 µM | 6.71 µM | > 100 µM | 28.9 µM | > 100 µM | 12.8 µM | > 100 µM | 3.92 µM | > 100 µM | 5.55 µM | 26.3 µM | 12.5 µM | > 100 µM | 31 µM | > 100 µM | 14.5 µM | > 100 µM
4 | Cc1nc(Nc2n[nH]c3c2CN(C(=O)N[C@H](CN(C)C)c2ccccc2)C3(C)C)c2sccc2n1 | 0.092 µM and 0.276 µM | 9.74 µM and 7.04 µM | 0.341 µM and 0.302 µM | > 5.18 µM and 5.01 µM | 0.0244 µM and 0.0346 µM | > 38.7 µM | 0.0982 µM and 0.491 µM | 3.92 µM and 6.08 µM | 0.615 µM and 1.39 µM | > 6.95 µM and 8.37 µM | 0.229 µM and 1.28 µM | > 4.67 µM and 42.3 µM | 0.00577 µM and < 0.01 µM | > 5.74 µM and 10.3 µM | 0.0127 µM and 0.0247 µM | > 3.53 µM and 16.7 µM | 0.0686 µM and 0.322 µM | > 8.88 µM and 25.2 µM | 0.317 µM and 0.205 µM | > 5.94 µM and 14.7 µM
5 | Cn1c([N+](=O)[O-])cnc1/C=C1\Oc2cc(Cl)ccc2C1=O | 0.212 µM | 2.32 µM | 2.05 µM | 8.41 µM | 0.159 µM | 1.06 µM | 1.33 µM | 4.81 µM | 2.48 µM | > 21.5 µM | 0.25 µM | 1.3 µM | 0.201 µM | 0.806 µM | 0.783 µM | > 20.2 µM | 2.47 µM | 7.84 µM | 1.94 µM | > 22.8 µM
6 | CC/C(=N\NS(=O)(=O)c1ccccc1)c1ccccc1 |  | > 100 µM |  | > 100 µM |  | > 100 µM |  | > 100 µM |  | > 100 µM |  | > 100 µM |  | > 100 µM |  | > 100 µM |  | > 100 µM |  | > 100 µM
